# Test results: ChEMBL document CHEMBL1142996 (J Med Chem, 2007)
# Non-standard residues stand in square brackets, D forms with d. Residues, ends and D or L forms follow the SMILES beside them. Phe(4-NH2) = Nc1ccc(C[C@H](N)C(=O)O)cc1
# Target: T1, Angiotensin II receptor (AT-1) type-1 (Rattus norvegicus, UniProt P29089+P25095)
# T1 sequence (P29089 whole entry): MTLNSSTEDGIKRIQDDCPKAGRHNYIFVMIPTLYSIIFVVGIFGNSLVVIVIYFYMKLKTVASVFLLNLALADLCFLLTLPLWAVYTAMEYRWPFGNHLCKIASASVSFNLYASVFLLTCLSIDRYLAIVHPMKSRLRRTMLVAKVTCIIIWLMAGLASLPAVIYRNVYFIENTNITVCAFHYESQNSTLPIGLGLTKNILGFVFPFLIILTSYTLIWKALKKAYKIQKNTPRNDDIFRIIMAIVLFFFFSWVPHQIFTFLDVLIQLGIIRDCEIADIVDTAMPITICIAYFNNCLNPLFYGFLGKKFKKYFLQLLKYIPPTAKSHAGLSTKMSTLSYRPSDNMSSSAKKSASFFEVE
# T1 sequence (P25095 whole entry): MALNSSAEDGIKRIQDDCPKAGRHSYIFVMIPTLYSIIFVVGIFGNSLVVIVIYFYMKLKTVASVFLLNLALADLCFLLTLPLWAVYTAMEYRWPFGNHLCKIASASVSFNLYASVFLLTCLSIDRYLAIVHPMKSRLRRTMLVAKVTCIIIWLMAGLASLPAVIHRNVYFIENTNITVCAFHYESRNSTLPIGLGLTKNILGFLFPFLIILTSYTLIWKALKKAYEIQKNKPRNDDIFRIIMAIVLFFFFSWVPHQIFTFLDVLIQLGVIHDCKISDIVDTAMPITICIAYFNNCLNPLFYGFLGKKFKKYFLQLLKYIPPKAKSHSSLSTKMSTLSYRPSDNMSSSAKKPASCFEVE
# Assay: Displacement of [125I]Ang2 from AT1 receptor in rat liver membrane
# Type: cell membranes
row,Ki [µM],SMILES
1,> 10,CC[C@H](C)[C@H](NC(=O)[C@@H]1CCCN1C(=O)[C@@H](N)Cc1cnc[nH]1)C(=O)O (H-His-Pro-Ile-OH)
2,> 10,O=C(N[C@@H](Cc1ccccc1)C(=O)O)c1cccc(Cc2cnc[nH]2)c1
3,> 10,CC[C@H](C)[C@H](NC(=O)[C@H](Cc1ccc(O)cc1)NC(=O)[C@@H](NC(=O)[C@H](CCCNC(=N)N)NC(=O)[C@@H](N)CC(=O)O)C(C)C)C(=O)N[C@@H](Cc1ccc(N)cc1)C(=O)N1CCC[C@H]1C(=O)N[C@@H](Cc1ccccc1)C(=O)O (H-DRVYI[Phe(4-NH2)]PF-OH)
4,1.598,N[C@@H](Cc1cnc[nH]1)C(=O)N1CCC[C@H]1C(=O)N[C@@H](Cc1ccccc1)C(=O)O (H-His-Pro-Phe-OH)
5,> 10,CC[C@H](C)[C@H](NC(=O)[C@@H]1CCCN1C(=O)[C@H](Cc1cnc[nH]1)NC(C)=O)C(=O)O (Ac-His-Pro-Ile-OH)
6,> 10,CC[C@@H](C)[C@H](NC(=O)c1cccc(Cn2ccnc2)c1)C(=O)O
7,> 10,O=C(O)[C@H](Cc1ccccc1)NC(=O)[C@@H]1CCCN1C(=O)c1cccc(Cc2cnc[nH]2)c1
8,> 10,CC(=O)N[C@@H](Cc1cnc[nH]1)C(=O)N1CCC[C@H]1C(=O)N[C@@H](Cc1ccccc1)C(=O)O (Ac-His-Pro-Phe-OH)
9,> 10,CC[C@@H](C)[C@H](NC(=O)c1cccc(Cc2cnc[nH]2)c1)C(=O)O
10,> 10,O=C(N[C@@H](Cc1ccccc1)C(=O)O)c1cccc(Cn2ccnc2)c1
11,> 10,CC[C@@H](C)[C@H](NC(=O)[C@@H]1CCCN1C(=O)c1cccc(Cc2cnc[nH]2)c1)C(=O)O
12,> 10,CC[C@@H](C)[C@H](NC(=O)[C@@H]1CCCN1C(=O)c1cccc(Cn2ccnc2)c1)C(=O)O
13,> 10,O=C(O)[C@H](Cc1ccccc1)NC(=O)[C@@H]1CCCN1C(=O)c1cccc(Cn2ccnc2)c1
